This assay has as its target T1, human factor Xa (Homo sapiens, UniProt P00742).
T1 construct: 25 μl human factor Xa (Enzyme Research Laboratories, Inc; South Bend, Ind.) in TBS-PEG; purchased Enzyme Research Laboratories, Inc; South Bend, Ind
The experiment in a line: Factor Xa assay (chromogenic, purified enzyme). It counts as biochemical. Particulars: inhibition constant for factor Xa; chromogenic substrate S-2765 140 μM, enzyme 0.5 nM, 25° C., pH 7.8; Ki calculated from IC50 (Ki=IC50/{1+(substrate concentration/Km)}); read-out: Ki(FXa). Here is the method: The ability of the compounds of the formula I to inhibit factor Xa or factor VIIa or other enzymes like thrombin, plasmin, or trypsin can be assessed by determining the concentration of the compound of the formula I that inhibits enzyme activity by 50%, i. e. the IC50 value, which was related to the inhibition constant Ki. Purified enzymes were used in chromogenic assays. The concentration of inhibitor that causes a 50% decrease in the rate of substrate hydrolysis was determined by linear regression after plotting the relative rates of hydrolysis (compared to the uninhibited control) versus the log of the concentration of the compound of formula I. For calculating the inhibition constant Ki, the IC50 value was corrected for competition with substrate using the formula Ki=IC50/{1+(substrate concentration/Km)} wherein Km is the Michaelis-Menten constant (Chen and Prusoff, Biochem. Pharmacol. 22 (1973), 3099-3108; I. H. Segal, Enzyme Kinetics, 1975, John Wiley & Sons, New York, 100-125; which were incorporated herein by reference). a) Factor Xa Assay
In the assay for determining the inhibition of factor Xa activity TBS-PEG buffer (50 mM Tris-HCl, pH 7.8, 200 mM NaCl, 0.05% (w/v) PEG-8000, 0.02% (w/v) NaN3) was used. The IC50 was determined by combining in appropriate wells of a Costar half-area microtiter plate 25 μl human factor Xa (Enzyme Research Laboratories, Inc.; South Bend, Ind.) in TBS-PEG; 40 μl 10% (v/v) DMSO in TBS-PEG (uninhibited control) or various concentrations of the compound to be tested diluted in 10% (v/v) DMSO in TBS-PEG; and substrate S-2765 (N(α)-benzyloxycarbonyl-D-Arg-Gly-L-Arg-p-nitroanilide; Kabi Pharmacia, Inc.; Franklin, Ohio) in TBS-PEG.
The assay was performed by pre-incubating the compound of formula I plus enzyme for 10 min. Then the assay was initiated by adding substrate to obtain a final volume of 100 μl. The initial velocity of chromogenic substrate hydrolysis was measured by the change in absorbance at 405 nm using a Bio-tek Instruments kinetic plate reader (Ceres UV900HDi) at 25° C. during the linear portion of the time course (usually 1.5 min after addition of substrate). The enzyme concentration was 0.5 nM and substrate concentration was 140 μM.

In general, Ki refers to the dissociation constant of the complex between target and ligand, obtained from inhibition or displacement.

T1 sequence (P00742 235-488 limits assumed): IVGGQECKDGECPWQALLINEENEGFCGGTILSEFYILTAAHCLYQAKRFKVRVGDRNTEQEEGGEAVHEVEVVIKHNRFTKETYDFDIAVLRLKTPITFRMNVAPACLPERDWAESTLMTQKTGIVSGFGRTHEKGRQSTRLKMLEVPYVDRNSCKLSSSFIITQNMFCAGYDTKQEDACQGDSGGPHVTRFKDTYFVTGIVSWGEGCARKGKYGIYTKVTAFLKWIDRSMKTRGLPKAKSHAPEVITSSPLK
T1 sequence (P00742 41-179 partner limits assumed): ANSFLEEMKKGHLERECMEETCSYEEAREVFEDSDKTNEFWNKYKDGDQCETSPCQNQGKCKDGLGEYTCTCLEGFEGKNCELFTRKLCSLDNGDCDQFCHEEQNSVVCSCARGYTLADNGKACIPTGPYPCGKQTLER

Take `Cc1nc(-c2ccccc2)n(Cc2cc(-c3ccc(Cl)s3)on2)c1C(=O)NC1CCN(C(C)C)CC1` [Example 18, 3-[5-(5-Chloro-thiophen-2-yl)-isoxazol-3-ylmethyl]-5-methyl-2-phenyl-3H-imidazole-4-carboxylic acid (1-isopropyl-piperidin-4-yl)-amide]: the Ki is 0.007 µM. In the case of `CC(C)N1CCC(NC(=O)c2nc(C(=O)N3CC(O)C3)cn2Cc2cc(-c3ccc(Cl)s3)on2)CC1` [Example 43, 1-[5-(5-Chloro-thiophen-2-yl)-isoxazol-3-ylmethyl]-4-(3-hydroxy-azetidine-1-carbonyl)-1H-imidazole-2-carboxylic acid (1-isopropyl-piperidin-4-yl)-amide], the Ki is 0.062 µM. The figure for `CC(C)N1CCC(NC(=O)c2cnc(-c3c(F)cccc3F)n2Cc2cc(-c3ccc(Cl)s3)on2)CC1` [Example 12, 3-[5-(5-Chloro-thiophen-2-yl)-isoxazol-3-ylmethyl]-2-(2,6-difluoro-phenyl)-3H-imidazole-4-carboxylic acid (1-isopropyl-piperidin-4-yl)-amide] is 0.018 µM; for `CC(C)N1CCC(NC(=O)c2cnc(C(=O)N3CCCOCC3)n2Cc2cc(-c3ccc(Cl)s3)on2)CC1` [Example 71, 3-[5-(5-Chloro-thiophen-2-yl)-isoxazol-3-ylmethyl]-2-(perhydro-1,4-oxazepine-4-carbonyl)-3H-imidazole-4-carboxylic acid (1-isopropyl-piperidin-4-yl)-amide] it is 0.051 µM; for `CCc1nc(C(=O)NC2CCN(C(C)C)CC2)c(C)n1Cc1cc(-c2ccc(Cl)s2)on1` [Example 6, 1-[5-(5-Chloro-thiophen-2-yl)-isoxazol-3-ylmethyl]-2-ethyl-5-methyl-1H-imidazole-4-carboxylic acid (1-isopropyl-piperidin-4-yl)-amide] it is 0.53 µM.

On to `CC(C)N1CCC(NC(=O)c2cnc(-c3ccccn3)n2Cc2cc(-c3ccc(Cl)s3)on2)CC1` [Example 17, 3-[5-(5-Chloro-thiophen-2-yl)-isoxazol-3-ylmethyl]-2-pyridin-2-yl-3H-imidazole-4-carboxylic acid (1-isopropyl-piperidin-4-yl)-amide], for which the Ki was 0.112 µM.

Turning to `COCc1ncc(C(=O)NC2CCN(C(C)C)CC2)n1CC(=O)Nc1ccc(Cl)cc1` [Example 30, 3-[(4-Chloro-phenylcarbamoyl)-methyl]-2-methoxymethyl-3H-imidazole-4-carboxylic acid (1-isopropyl-piperidin-4-yl)-amide], the Ki was 0.035 µM. The figure for `Cc1nc(-c2ncc(C(=O)NC3CCN(C(C)C)CC3)n2Cc2cc(-c3ccc(Cl)s3)on2)cs1` [Example 21, 3-[5-(5-Chloro-thiophen-2-yl)-isoxazol-3-ylmethyl]-2-(2-methyl-thiazol-4-yl)-3H-imidazole-4-carboxylic acid (1-isopropyl-piperidin-4-yl)-amide] is 0.243 µM; for `O=C(NC1CCN(c2ccncc2)CC1)c1nccn1Cc1cc(-c2ccc(Cl)s2)on1` [Example 65, 1-[5-(5-Chloro-thiophen-2-yl)-isoxazol-3-ylmethyl]-1H-imidazole-2-carboxylic acid (3,4,5,6-tetrahydro-2H-[1,4′]bipyridinyl-4-yl)-amide] it is 0.118 µM; for `COCc1ncc(C(=O)NC2CCN(C(C)C)CC2)n1Cc1cc(-c2ccc(Cl)s2)on1` [Example 9, 3-[5-(5-Chloro-thiophen-2-yl)-isoxazol-3-ylmethyl]-2-methoxymethyl-3H-imidazole-4-carboxylic acid (1-isopropyl-piperidin-4-yl)-amide] it is 0.086 µM. With `CC(C)N1CCC(NC(=O)c2nc(C(=O)NCCO)cn2Cc2cc(-c3ccc(Cl)s3)on2)CC1` [Example 47], the Ki was 0.077 µM. Turning to `CC(C)c1ncc(C(=O)NC2CCN(C(C)C)CC2)n1Cc1cc(-c2ccc(Cl)s2)on1` [Example 16, 3-[5-(5-Chloro-thiophen-2-yl)-isoxazol-3-ylmethyl]-2-isopropyl-3H-imidazole-4-carboxylic acid (1-isopropyl-piperidin-4-yl)-amide], the Ki is 0.254 µM. On to `CC(C)N1CCC(NC(=O)c2nccn2Cc2cc(-c3ccc(Cl)s3)on2)CC1` [Example 60, 1-[5-(5-Chloro-thiophen-2-yl)-isoxazol-3-ylmethyl]-1H-imidazole-2-carboxylic acid (1-isopropyl-piperidin-4-yl)-amide], for which the Ki is 0.049 µM. The figure for `CCS(=O)(=O)c1ncc(C(=O)NC2CCN(C(C)C)CC2)n1Cc1cc(-c2ccc(Cl)s2)on1` [Example 23, 3-[5-(5-Chloro-thiophen-2-yl)-isoxazol-3-ylmethyl]-2-ethanesulfonyl-3H-imidazole-4-carboxylic acid (1-isopropyl-piperidin-4-yl)-amide] is 0.006 µM; for `CC(C)N1CCC(NC(=O)c2nc(C(=O)O)cn2Cc2cc(-c3ccc(Cl)s3)on2)CC1` [Example 39, 1-[5-(5-Chloro-thiophen-2-yl)-isoxazol-3-ylmethyl]-2-(1-isopropyl-piperidin-4-ylcarbamoyl)-1H-imidazole-4-carboxylic acid] it is 0.117 µM; for `CC(C)N1CCC(NC(=O)c2cnc(-c3cccnc3)n2Cc2cc(-c3ccc(Cl)s3)on2)CC1` [Example 20, 3-[5-(5-Chloro-thiophen-2-yl)-isoxazol-3-ylmethyl]-2-pyridin-3-yl-3H-imidazole-4-carboxylic acid (1-isopropyl-piperidin-4-yl)-amide] it is 0.358 µM.

In the case of `O=C(NCC1CCN(c2ccncc2)CC1)c1nccn1Cc1cc(-c2ccc(Cl)s2)on1` [Example 63, 1-[5-(5-Chloro-thiophen-2-yl)-isoxazol-3-ylmethyl]-1H-imidazole-2-carboxylic acid (3,4,5,6-tetrahydro-2H-[1,4′]bipyridinyl-4-ylmethyl)-amide], the Ki was 0.64 µM. The figure for `CC(C)N1CCC(NC(=O)c2c(Cl)nc(-c3ccccc3)n2CC(=O)Nc2ccc(Cl)cn2)CC1` [Example 33, 5-Chloro-3-[(5-chloro-pyridin-2-ylcarbamoyl)-methyl]-2-phenyl-3H-imidazole-4-carboxylic acid (1-isopropyl-piperidin-4-yl)-amide] is 0.103 µM. Under `CC(C)N1CCC(NC(=O)c2cncn2CC(=O)Nc2ccc(Cl)cn2)CC1` [Example 29, 3-[(5-Chloro-pyridin-2-ylcarbamoyl)-methyl]-3H-imidazole-4-carboxylic acid (1-isopropyl-piperidin-4-yl)-amide] stands 0.14 µM. Under `CC(C)N1CCC(NC(=O)c2nc(C(=O)OC(C)(C)C)cn2Cc2cc(-c3ccc(Cl)s3)on2)CC1` [Example 38, 1-[5-(5-Chloro-thiophen-2-yl)-isoxazol-3-ylmethyl]-2-(1-isopropyl-piperidin-4-ylcarbamoyl)-1H-imidazole-4-carboxylic acid tert-butyl ester] stands 0.174 µM; under `CC(C)N1CCC(NC(=O)c2nc(C(=O)OCC(=O)OC(C)(C)C)cn2Cc2cc(-c3ccc(Cl)s3)on2)CC1` [Example 46, 1-[5-(5-Chloro-thiophen-2-yl)-isoxazol-3-ylmethyl]-2-(1-isopropyl-piperidin-4-ylcarbamoyl)-1H-imidazole-4-carboxylic acid tert-butoxycarbonylmethyl ester], 0.128 µM.

The values are drawn from patent US7358268B2, “Imidazole derivatives as factor Xa inhibitors” (Sanofi-Aventis Deutschland GmbH, priority 2002, dated 2008).
